Assay results as given in patent publication US9593108B2, “Compounds and methods for antiviral treatment” (PTC Therapeutics, Inc., priority 2009, dated 2017).

Columns and labels:
[1] = system: HCV replicon RNA (GenBank Accession No. AJ242654); test: HCV Replicon Assay (replicon RNA reduction and/or Fluc reporter signal); type: cell-based, Hepatitis C virus; settings: Hepatitis C virus, 72 h, replicon-containing cells cultured with test compound for up to 3 days
In short: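 Bicistronic replicon-containing cells cultured with compound for up to 3 days, with interferon as positive control. Inhibition quantified by replicon RNA reduction and/or Fluc reporter signal; IC50 values generally derived from replicon RNA reduction.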

| Structure (SMILES) | melting point [°C] | IC50 [1] [nM] |
| --- | --- | --- |
| Cc1cnc2c(c1)c(C#N)c(-c1ccc(S(=O)(=O)N[C@@H](C)C(F)(F)F)cn1)n2-c1cc(F)cc(F)c1 [Cpd 506, 6-[3-cyano-1-(3,5-difluorophenyl)-5-methyl-1H-pyrrolo[2,3-b]pyridin-2-yl]-N-[(2S)-1,1,1-trifluoropropan-2-yl]pyridine-3-sulfonamide] | 260 to 262 | < 500 |
| Cc1cnc2c(c1)c(C#N)c(-c1ccc(S(=O)(=O)N[C@@H](C)C(F)(F)F)cn1)n2-c1cscn1 [Cpd 507, 6-[3-cyano-5-methyl-1-(1,3-thiazol-4-yl)-1H-pyrrolo[2,3-b]pyridin-2-yl]-N-[(2S)-1,1,1-trifluoropropan-2-yl]pyridine-3-sulfonamide] | 186 to 188 | < 500 |
| Cc1cnc2c(c1)c(C#N)c(-c1ccc(S(=O)(=O)N[C@@H](C)C(F)(F)F)cn1)n2-c1cc(C#N)ncn1 [Cpd 508, 6-[3-cyano-1-(6-cyanopyrimidin-4-yl)-5-methyl-1H-pyrrolo[2,3-b]pyridin-2-yl]-N-[(2S)-1,1,1-trifluoropropan-2-yl]pyridine-3-sulfonamide] | 120 to 122 | < 500 |
| CCc1cnc2c(c1)c(C#N)c(-c1ccc(S(=O)(=O)N[C@@H](C)C(F)(F)F)cn1)n2-c1cccs1 [Cpd 509, 6-[3-cyano-5-ethyl-1-(thiophen-2-yl)-1H-pyrrolo[2,3-b]pyridin-2-yl]-N-[(2S)-1,1,1-trifluoropropan-2-yl]pyridine-3-sulfonamide] | 169 to 171 | < 500 |
| CCc1cnc2c(c1)c(C#N)c(-c1ccc(S(=O)(=O)N[C@@H](C)C(F)(F)F)cn1)n2-c1ccc(F)cc1 [Cpd 510, 6-[3-cyano-5-ethyl-1-(4-fluorophenyl)-1H-pyrrolo[2,3-b]pyridin-2-yl]-N-[(2S)-1,1,1-trifluoropropan-2-yl]pyridine-3-sulfonamide] | 212 to 214 | < 500 |
| CCc1cnc2c(c1)c(C#N)c(-c1ccc(S(=O)(=O)N[C@@H](C)C(F)(F)F)cn1)n2-c1cccc(F)c1 [Cpd 511, 6-[3-cyano-5-ethyl-1-(3-fluorophenyl)-1H-pyrrolo[2,3-b]pyridin-2-yl]-N-[(2S)-1,1,1-trifluoropropan-2-yl]pyridine-3-sulfonamide] | 195 to 197 | < 500 |
| CCc1cnc2c(c1)c(C#N)c(-c1ccc(S(=O)(=O)N[C@@H](C)C(F)(F)F)cn1)n2-c1nccs1 [Cpd 512, 6-[3-cyano-5-ethyl-1-(1,3-thiazol-2-yl)-1H-pyrrolo[2,3-b]pyridin-2-yl]-N-[(2S)-1,1,1-trifluoropropan-2-yl]pyridine-3-sulfonamide] | 229 to 231 | < 500 |
| [2H]C(C)(C)NS(=O)(=O)c1ccc(-c2c(C#N)c3cc(C(F)(F)F)cnc3n2C2CCC2)nc1 [Cpd 513, 6-[3-cyano-1-cyclobutyl-5-(trifluoromethyl)-1H-pyrrolo[2,3-b]pyridin-2-yl]-N-[(2-deuterium)propan-2-yl]pyridine-3-sulfonamide] | 191 to 193 | < 500 |
| Cc1cnc2c(c1)c(C#N)c(-c1ccc(S(=O)(=O)N[C@@H](C)C(F)(F)F)cn1)n2-c1nc(C#N)cs1 [Cpd 514, 6-[3-cyano-1-(4-cyano-1,3-thiazol-2-yl)-5-methyl-1H-pyrrolo[2,3-b]pyridin-2-yl]-N-[(2S)-1,1,1-trifluoropropan-2-yl]pyridine-3-sulfonamide] | 259 to 261 | 500 to 2000 |
| CC(C)(C)NS(=O)(=O)c1ccc(-c2c(C#N)c3cc(Cl)cnc3n2-c2nccs2)nc1 [Cpd 515, N-tert-butyl-6-[5-chloro-3-cyano-1-(1,3-thiazol-2-yl)-1H-pyrrolo[2,3-b]pyridin-2-yl]pyridine-3-sulfonamide] | 216 to 218 | < 500 |
| CC(C)(C)NS(=O)(=O)c1ccc(-c2c(C#N)c3cc(C(F)(F)F)cnc3n2-c2ccccc2)nc1 [Cpd 516, N-tert-butyl-6-[3-cyano-1-phenyl-5-(trifluoromethyl)-1H-pyrrolo[2,3-b]pyridin-2-yl]pyridine-3-sulfonamide] | 201.2 to 202.4 | < 500 |
| CC(C)(C)NS(=O)(=O)c1ccc(-c2c(C#N)c3cc(C(F)(F)F)cnc3n2-c2ccc(F)cc2)nc1 [Cpd 517, N-tert-butyl-6-[3-cyano-1-(4-fluorophenyl)-5-(trifluoromethyl)-1H-pyrrolo[2,3-b]pyridin-2-yl]pyridine-3-sulfonamide] | 228.3 to 229.4 | 500 to 2000 |
| CC(C)(C)NS(=O)(=O)c1ccc(-c2c(C#N)c3cc(C(F)(F)F)cnc3n2-c2ccccn2)nc1 [Cpd 518, N-tert-butyl-6-[3-cyano-1-(pyridin-2-yl)-5-(trifluoromethyl)-1H-pyrrolo[2,3-b]pyridin-2-yl]pyridine-3-sulfonamide] | 210.4 to 211.8 | < 500 |
| CC(C)(C)NS(=O)(=O)c1ccc(-c2c(C#N)c3cc(F)cnc3n2-c2ccccc2)nc1 [Cpd 519, N-tert-butyl-6-(3-cyano-5-fluoro-1-phenyl-1H-pyrrolo[2,3-b]pyridin-2-yl)pyridine-3-sulfonamide] | 239.4 to 241.5 | < 500 |
| CC(C)(C)NS(=O)(=O)c1ccc(-c2c(C#N)c3cc(F)cnc3n2-c2ccc(F)cc2)nc1 [Cpd 520, N-tert-butyl-6-[3-cyano-5-fluoro-1-(4-fluorophenyl)-1H-pyrrolo[2,3-b]pyridin-2-yl]pyridine-3-sulfonamide] | 259.1 to 260.7 | 2000 to 5000 |
| CC(C)(C)NS(=O)(=O)c1ccc(-c2c(C#N)c3cc(F)cnc3n2-c2cnccn2)nc1 [Cpd 521, N-tert-butyl-6-[3-cyano-5-fluoro-1-(pyrazin-2-yl)-1H-pyrrolo[2,3-b]pyridin-2-yl]pyridine-3-sulfonamide] | 245 to 247 | < 500 |
| CC(C)(C)NS(=O)(=O)c1ccc(-c2c(C#N)c3cc(F)cnc3n2-c2ccccn2)nc1 [Cpd 522, N-tert-butyl-6-[3-cyano-5-fluoro-1-(pyridin-2-yl)-1H-pyrrolo[2,3-b]pyridin-2-yl]pyridine-3-sulfonamide] | 202.2 to 204.3 | < 500 |
| CC(C)(C)NS(=O)(=O)c1ccc(-c2c(C(N)=O)c3cc(C(F)(F)F)cnc3n2-c2ccccc2)nc1 [Cpd 523, 2-[5-(tert-butylsulfamoyl)pyridin-2-yl]-1-phenyl-5-(trifluoromethyl)-1H-pyrrolo[2,3-b]pyridine-3-carboxamide] | 241.8 to 243 | < 500 |
| Cc1cnc2c(c1)c(C#N)c(-c1ccc(S(=O)(=O)NC(C)(C)C)cn1)n2-c1ccccc1 [Cpd 524, N-tert-butyl-6-(3-cyano-5-methyl-1-phenyl-1H-pyrrolo[2,3-b]pyridin-2-yl)pyridine-3-sulfonamide] | 228.6 to 229.3 | 500 to 2000 |
| Cc1cnc2c(c1)c(C#N)c(-c1ccc(S(=O)(=O)NC(C)(C)C)cn1)n2-c1ccccn1 [Cpd 525, N-tert-butyl-6-[3-cyano-5-methyl-1-(pyridin-2-yl)-1H-pyrrolo[2,3-b]pyridin-2-yl]pyridine-3-sulfonamide] | 214.2 to 215.4 | 500 to 2000 |
| CC(C)(C)NS(=O)(=O)c1ccc(-c2c(C#N)c3cc(C(F)(F)F)cnc3n2-c2cnccn2)nc1 [Cpd 526, N-tert-butyl-6-[3-cyano-1-(pyrazin-2-yl)-5-(trifluoromethyl)-1H-pyrrolo[2,3-b]pyridin-2-yl]pyridine-3-sulfonamide] | 214.2 to 215.4 | < 500 |
| CC(C)(C)NS(=O)(=O)c1ccc(-c2c(C(N)=O)c3cc(F)cnc3n2-c2ccccc2)nc1 [Cpd 527, 2-[5-(tert-butylsulfamoyl)pyridin-2-yl]-5-fluoro-1-phenyl-1H-pyrrolo[2,3-b]pyridine-3-carboxamide] | 275.2 to 276.9 | 500 to 2000 |
